Experimental data from patent US7699995B2, “Water treatment method” (priority 2006, dated 2010).
Marks after values point to notes of the source that are not given here.

How the values were obtained:
[1] = buffer, pH 9
Protocol: pH 9 buffer containing 0.069 M boric acid, 0.017 M citric acid, 0.066 M sodium phosphate was prepared in distilled water. Biocide was dosed into the pH 9 buffer solution and stored at 70° C. in a heat block. The samples were examined for active ingredient concentration at the time points after 5 hours, and 1, 3, 7, 23, 30, 35 and 56 days. Initial biocide doses were 166 ppm MI, 199 ppm BIT and 150 ppm BNPD.
The samples were evaluated for active ingredient concentration via High Pressure Liquid Chromatography. Samples were taken from the heating blocks and allowed to cool to room temperature for 30 minutes. The samples were then diluted 1:20 in deionized water by adding 9.5 ml of deionized water to 0.5 grams of the samples in a 25 ml glass sample vial. The samples were mixed for 15 seconds and transferred to HPLC sample vials for analysis.

[2] = Stability in buffered water at various pH and temperatures (HPLC); format: physicochemical
Protocol: Biocides were added to buffer solutions and stability was tested at 22° and 50° C. using HPLC to measure biocide concentration at 0 time, 21 days, 43 days, and 88-90 days. Biocide stability was determined in the following buffer solutions: pH2, 0.01M HCl; pH6, 0.1M KH2PO4; pH8, 0.025M borate; pH10, 0.025M borate; pH12, 0.05M Na2HPO4. Biocide concentrations tested were 100 ppm MI, 200 ppm BIT, 44 ppm CMI.

[3] = Stability in high pH metalworking fluid use dilutions (HPLC); format: physicochemical; settings: for % CMIT Remaining (without MCC) / % CMIT Remaining (with MCC): 25° C.; for % CMIT Remaining (with MCC): MCC 300 ppm
Protocol: Stability studies were conducted in three high pH metalworking fluid use dilutions to compare the persistence of MIT biocide versus CMIT biocide, tested alone and in combination with MCC). Aliquots of the use-diluted fluids were dosed with 17.5 ppm active CMIT/MIT and CMIT/MIT/MCC and stored at 25° C. Biocide concentrations were determined at time zero and weekly using high performance liquid chromatography (HPLC) analysis.

[4] = system: Mycobacterium chelonae (ATCC 14472); assay: High resolution MIC test, pure culture, 1/10x TSB; format: cell-based; settings: M. chelonae, 24 hours at 37° C.
Protocol: (§1) The lowest concentration of microbicide required to inhibit bacteria was determined by a high resolution MIC test. Varying amounts of each microbicide were added to media in a 96-well microtiter plate. The media used for the MIC tests was 10% Trypicase Soy Broth ( 1/10× TSB). […] serial dilutions were performed on a Biomek 2000 Workstation to obtain a range of closely spaced concentrations of microbicides. A cell suspension of stationary phase microorganisms, adjusted to provide 10^6 colony forming units (CFU)/mL in each well for bacteria was added to the microtiter plate. The microtiter plates were incubated for 24 hours at 30° C. for Mycobacterium immunogenum and 37° C. for Mycobacterium chelonae. The presence or absence of microbial growth was determined by measuring the turbidity in each well using a Thermomax microplate reader set at an absorbance of 650 nm. The lowest concentration of compound in which no growth was observed was considered the MIC value for the microbicide. The MIC value for each microbicide was determined from the average of four determinations for bacteria.
(§2) Bacterial strains tested included Mycobacterium chelonae (ATCC 14472) and Mycobacterium immunogenum (ATCC 700505). Mycobacterial cultures were grown overnight at 30° C. (M. immunogenum) or 37° C. (M. chelonae), in a rotary shaking bath in Middlebrook […] with Middlebrook enrichment. A 1:20 dilution of the overnight culture was made into the appropriate test media and inoculated to give a final concentration of 10^6 to 10^7 CFU/ml.

[5] = system: Mycobacterium immunogenum (ATCC 700505); assay: High resolution MIC test, pure culture, 1/10x TSB; format: cell-based; settings: M. immunogenum, 24 hours at 30° C.
Protocol: as §1, §2

[6] = system: Mycobacterium chelonae (ATCC 14472); assay: MBC test, transfer from MIC plates to fresh media; format: cell-based; settings: M. chelonae, no survivors after 2 days in fresh media
Protocol: as §2
(§3) MBC tests were conducted by transferring samples from the MIC test samples into fresh media and observing for growth of the culture. Growth was determined as above. In this test using Biomek 2000 Workstation, 10 μl samples taken from the 96-well MIC plates were placed in […] of fresh growth media to determine the number of surviving organisms for the same gradient of biocide concentrations. These plates were incubated and read in the same fashion as the MIC plates.

[7] = system: Mycobacterium immunogenum (ATCC 700505); assay: MBC test, transfer from MIC plates to fresh media; format: cell-based; settings: M. immunogenum, no survivors after 2 days in fresh media
Protocol: as §2, §3

[8] = system: natural, resident populations of Mycobacterium; assay: Eradication of mycobacteria in naturally contaminated in-use metalworking fluids; format: cell-based; settings: for No. of Fluids with ≧99% Kill (2-log reduction): of six fluids, 48 hours
Protocol: A comparative study was conducted evaluating six metalworking fluid biocides versus natural, resident populations of Mycobacterium from six in-use metalworking fluids. CMIT/MIT, CMIT/MIT/MCC, MIT, BIT, triazine, and PCMC microbicides were tested under controlled laboratory conditions to determine their efficacy at the maximum manufacturer's recommended dose rate (Table 2). The metalworking fluids were known to contain high levels of mycobacteria prior to dosing with biocides. Samples were then dosed with biocides, incubated with agitation at room temperature and viable mycobacteria counts determined after 48 hours by plating onto Middlebrook 7H10 medium, with Tween 80, glycerin, cyclohexamide, chloramphenicol, and gentamycin to suppress the growth of unwanted microorganisms.
The six metalworking fluid samples containing mycobacteria study from Example 7, were also tested using the same biocides with dosing at 50% of the maximum manufacturer's recommended rate (Table 2) under the same conditions. These metalworking fluids were known to contain high levels of mycobacteria prior to dosing with biocides. Samples were then dosed with biocides, incubated with agitation at room temperature and viable mycobacteria counts determined after 48 hours by plating onto Middlebrook 7H10 medium, with Tween 80, glycerin, cyclohexamide, chloramphenicol, and gentamycin to suppress the growth of unwanted microorganisms.

[9] = Synthetic Fluid 2 (pH 9.4), 1 wk
[10] = Synthetic Fluid 2 (pH 9.4), 3 wk
[11] = Fluid 1, 48 hours, 50% of recommended maximum dose
[12] = Fluid 1, 48 hours, 100% of recommended maximum dose
[13] = Fluid 2, 48 hours, 50% of recommended maximum dose
[14] = Fluid 2, 48 hours, 100% of recommended maximum dose
[15] = Fluid 3, 48 hours, 50% of recommended maximum dose
[16] = Fluid 3, 48 hours, 100% of recommended maximum dose
[17] = Fluid 4, 48 hours, 50% of recommended maximum dose
[18] = Fluid 4, 48 hours, 100% of recommended maximum dose
[19] = Fluid 5, 48 hours, 50% of recommended maximum dose
[20] = Fluid 5, 48 hours, 100% of recommended maximum dose
[21] = Fluid 6, 48 hours, 50% of recommended maximum dose
[22] = Fluid 6, 48 hours, 100% of recommended maximum dose

SMILES: O=[N+]([O-])C(Br)(CO)CO [BNPD, 2-bromo-2-nitro-propane-1,3-diol]
- Percent Remaining after: 0 ([1]; 0 h): 100%
- Percent Remaining after: 5 hr ([1]; 5 h): 0%
- Percent Remaining after: 1 day ([1]; 24 h): 0%

SMILES: Cn1sc(Cl)cc1=O [CMI, 5-chloro-2-methyl-4-isothiazolin-3-one]
- Percent Remaining at: pH 2 ([2]; 22° C., day 0): 100%
- Percent Remaining at: pH 6 ([2]; 22° C., day 0): 100%
- Percent Remaining at: pH 8 ([2]; 22° C., day 0): 100%
- Percent Remaining at: pH 10 ([2]; 22° C., day 0): 100%
- Percent Remaining at: pH 12 ([2]; 22° C., day 0): 100%
- Percent Remaining at: pH 2 ([2]; 22° C., day 21): 100%
- Percent Remaining at: pH 6 ([2]; 22° C., day 21): 100%
- Percent Remaining at: pH 8 ([2]; 22° C., day 21): 100%
- Percent Remaining at: pH 10 ([2]; 22° C., day 21): 0%
- Percent Remaining at: pH 12 ([2]; 22° C., day 21): 0%
- Percent Remaining at: pH 2 ([2]; 22° C., day 43): 100%
- Percent Remaining at: pH 6 ([2]; 22° C., day 43): 100%
- Percent Remaining at: pH 8 ([2]; 22° C., day 43): 91%
- Percent Remaining at: pH 10 ([2]; 22° C., day 43): 0%
- Percent Remaining at: pH 12 ([2]; 22° C., day 43): 0%
- Percent Remaining at: pH 2 ([2]; 22° C., day 88): 100%
- Percent Remaining at: pH 6 ([2]; 22° C., day 88): 100%
- Percent Remaining at: pH 8 ([2]; 22° C., day 88): 95%
- Percent Remaining at: pH 10 ([2]; 22° C., day 88): 0%
- Percent Remaining at: pH 12 ([2]; 22° C., day 88): 0%
- Percent Remaining at: pH 2 ([2]; 50° C., day 0): 100%
- Percent Remaining at: pH 6 ([2]; 50° C., day 0): 100%
- Percent Remaining at: pH 8 ([2]; 50° C., day 0): 100%
- Percent Remaining at: pH 10 ([2]; 50° C., day 0): 100%
- Percent Remaining at: pH 12 ([2]; 50° C., day 0): 100%
- Percent Remaining at: pH 2 ([2]; 50° C., day 21): 100%
- Percent Remaining at: pH 6 ([2]; 50° C., day 21): 100%
- Percent Remaining at: pH 8 ([2]; 50° C., day 21): 15%
- Percent Remaining at: pH 10 ([2]; 50° C., day 21): 0%
- Percent Remaining at: pH 12 ([2]; 50° C., day 21): 0%
- Percent Remaining at: pH 2 ([2]; 50° C., day 43): 93%
- Percent Remaining at: pH 6 ([2]; 50° C., day 43): 65%
- Percent Remaining at: pH 8 ([2]; 50° C., day 43): 0%
- Percent Remaining at: pH 10 ([2]; 50° C., day 43): 0%
- Percent Remaining at: pH 12 ([2]; 50° C., day 43): 0%
- Percent Remaining at: pH 2 ([2]; 50° C., day 88): 100%
- Percent Remaining at: pH 6 ([2]; 50° C., day 88): 30%
- Percent Remaining at: pH 8 ([2]; 50° C., day 88): 0%
- Percent Remaining at: pH 10 ([2]; 50° C., day 88): 0%
- Percent Remaining at: pH 12 ([2]; 50° C., day 88): 0%
- % CMIT Remaining (without MCC) ([3]; Soluble Fluid 1 (pH 9.2), 2 wk): 28%
- % CMIT Remaining (with MCC) ([3]; Soluble Fluid 1 (pH 9.2), 2 wk): 38%
- % CMIT Remaining (without MCC) ([3]; Soluble Fluid 1 (pH 9.2), 4 wk): 10%
- % CMIT Remaining (with MCC) ([3]; Soluble Fluid 1 (pH 9.2), 4 wk): 18%
- % CMIT Remaining (without MCC) ([3]; Soluble Fluid 3 (pH 9.3), 2 wk): 25%
- % CMIT Remaining (with MCC) ([3]; Soluble Fluid 3 (pH 9.3), 2 wk): 35%
- % CMIT Remaining (without MCC) ([3]; Soluble Fluid 3 (pH 9.3), 4 wk): 0%
- % CMIT Remaining (with MCC) ([3]; Soluble Fluid 3 (pH 9.3), 4 wk): 16%
- % CMIT Remaining (without MCC) [3, 9]: 13%
- % CMIT Remaining (with MCC) [3, 9]: 42%
- % CMIT Remaining (without MCC) [3, 10]: 0* %
- % CMIT Remaining (with MCC) [3, 10]: 0%
- biocide remaining, CMIT with MCC ([3]; after 3-4 weeks in the three fluids, 300 ppm MCC): ≤ 16%
- biocide remaining, CMIT alone ([3]; after 3-4 weeks in the three fluids, without MCC): none remaining

SMILES: C1COCN1 [Oxazolidine]
- Minimum Inhibitory Concentration [4]: 42 ppm active
- Minimum Inhibitory Concentration [5]: 38 ppm active
- Minimum Biocidal Concentration [6]: 34 ppm active
- Minimum Biocidal Concentration [7]: 836 ppm active

SMILES: Cc1cc(O)ccc1Cl [PCMC]
- Minimum Inhibitory Concentration [4]: 20 ppm active
- Minimum Inhibitory Concentration [5]: 35 ppm active
- Minimum Biocidal Concentration [6]: 60 ppm active
- Minimum Biocidal Concentration [7]: 75 ppm active
- Log Reduction in Mycobacterial Counts versus Control (no biocide) [8, 11]: 0.00 log
- Log Reduction in Mycobacterial Counts versus Control (no biocide) [8, 12]: 5.88 log
- Log Reduction in Mycobacterial Counts versus Control (no biocide) [8, 13]: 1.00 log
- Log Reduction in Mycobacterial Counts versus Control (no biocide) [8, 14]: 5.00 log
- Log Reduction in Mycobacterial Counts versus Control (no biocide) [8, 15]: 0.00 log
- Log Reduction in Mycobacterial Counts versus Control (no biocide) [8, 16]: 1.00 log
- Log Reduction in Mycobacterial Counts versus Control (no biocide) [8, 17]: 5.24 log
- Log Reduction in Mycobacterial Counts versus Control (no biocide) [8, 18]: 5.24 log
- Log Reduction in Mycobacterial Counts versus Control (no biocide) [8, 19]: 0.51 log
- Log Reduction in Mycobacterial Counts versus Control (no biocide) [8, 20]: 0.90 log
- Log Reduction in Mycobacterial Counts versus Control (no biocide) [8, 21]: 3.88 log
- Log Reduction in Mycobacterial Counts versus Control (no biocide) [8, 22]: 3.88 log

SMILES: OCCN1CN(CCO)CN(CCO)C1 [Triazine]
- Minimum Inhibitory Concentration [4]: 43 ppm active
- Minimum Inhibitory Concentration [5]: 39 ppm active
- Minimum Biocidal Concentration [6]: 314 ppm active
- Minimum Biocidal Concentration [7]: 314 ppm active
- Log Reduction in Mycobacterial Counts versus Control (no biocide) [8, 11]: 0.00 log
- Log Reduction in Mycobacterial Counts versus Control (no biocide) [8, 12]: 0.00 log
- Log Reduction in Mycobacterial Counts versus Control (no biocide) [8, 13]: 0.00 log
- Log Reduction in Mycobacterial Counts versus Control (no biocide) [8, 14]: 0.12 log
- Log Reduction in Mycobacterial Counts versus Control (no biocide) [8, 15]: 0.00 log
- Log Reduction in Mycobacterial Counts versus Control (no biocide) [8, 16]: 0.00 log
- Log Reduction in Mycobacterial Counts versus Control (no biocide) [8, 17]: 0.00 log
- Log Reduction in Mycobacterial Counts versus Control (no biocide) [8, 18]: 0.00 log
- Log Reduction in Mycobacterial Counts versus Control (no biocide) [8, 19]: 0.06 log
- Log Reduction in Mycobacterial Counts versus Control (no biocide) [8, 20]: 0.00 log
- Log Reduction in Mycobacterial Counts versus Control (no biocide) [8, 21]: 0.00 log
- Log Reduction in Mycobacterial Counts versus Control (no biocide) [8, 22]: 0.00 log
- No. of Fluids with ≧99% Kill (2-log reduction) ([8]; 50% of recommended maximum dose): 0
- No. of Fluids with ≧99% Kill (2-log reduction) ([8]; 100% of recommended maximum dose): 0
